Data taken from patent publication US20210198248A1, “FUMARATE SALT OF 5-((5-METHYL-2-((3,4,5-[…])AMINO)PYRIMIDIN-4-YL)AMINO)-BENZO[D]OXAZOL-2(3H)-ONE” (ASTRAZENECA AB, priority 2018, published 2021).
Counter-ions that a name gives are not always drawn.

What was measured:
[1] = test system: JAK; conditions: cell-based assay, WO 2010/085684 page 314; cited from earlier work
[2] = Dissolution measurements, μ-DISS Profiler, micronized material; format: physicochemical
Protocol: In general, 0.5 mg of the micronized material was added to the stirred dissolution media (20 mL 0.1 M acetate buffer, pH 4.5, 200 rpm, at 37° C.). The dissolution profiles were generated by measuring the UV absorbance at 280 nm wavelength. The material of interest was evaluated in triplicate.
The particle size of the materials was reduced by micronisation, as follows, using a 2″ Spiral Jet Mill or a 1″ MCOne fluid Jet Mill followed by subsequent particle size distribution (PSD) measurements.
Test substance was fed into the jet mill chamber, via a venturi feed system, by a vibratory feeder. Micronisation was achieved by particle collisions brought about by compressed gas (nitrogen) forced through angled nozzles in the jet mill chamber. Particles of different sizes develop different speeds and momentum and as the particle size is reduced the particles spiral towards the centre of the jet mill and exit via an exhaust into a collection bin. The process parameters that control the particle size, in addition to the inherent properties of the compound to be micronised, are the feed rate, grinding pressure and venturi pressure and these are summarised in Table 2 below.

| SMILES | IC50 [1] [µM] | increase in solubility compared to free base ([2]; at 50 minutes, 0.1 M acetate buffer pH 4.5, 37° C., micronized material) [fold] | aqueous solubility ([2]; general statement, compared to Compound (I) free base) |
| --- | --- | --- | --- |
| Cc1cnc(Nc2cc(C)c(C)c(C)c2)nc1Nc1ccc2oc(=O)[nH]c2c1 [Compound (I), 5-((5-methyl-2-((3,4,5-trimethylphenyl)-amino)pyrimidin-4-yl)amino)benzo[d]oxazol-2(3H)-one] | < 0.5 | – | – |
| Cc1cnc(Nc2cc(C)c(C)c(C)c2)nc1Nc1ccc2oc(=O)[nH]c2c1 [hemi-fumarate salt, 5-((5-methyl-2-((3,4,5-trimethylphenyl)-amino)pyrimidin-4-yl)amino)benzo[d]oxazol-2(3H)-one hemi-fumarate Salt] | – | ~6 | high aqueous solubility |
